Experimental data from patent publication US20220242874A1, “CAMPTOTHECIN DERIVATIVES” (SUN PHARMA ADVANCED RESEARCH COMPANY LIMITED, priority 2019, published 2022).
Read-outs that look alike come from different tables or passages of the source.

Key:
[1] = mouse, 2000 ng/mL, pH 5.5
Method: Aliquot of 100 μL were taken from stability samples in pre-labelled micro-centrifuge tubes. 5 μL of cetirizine working internal standard (5 μg/mL) was added to each tube and vortexed well. 1 mL acetonitrile was added to each tube and vortexed well and then centrifuge at 10000 RPM for 5 min at room temperature. The supernatant was collected in ria vials and evaporated to dryness under nitrogen stream. The samples were reconstituted in 1 mL of 0.1% formic acid in water: acetonitrile 30:70 v/v. The prepared samples were analyzed using LC-MS/MS method. Quantification was done against SN-38 standard, prepared at 2000 ng/mL concentration. SN-38 standard prepared by spiking 5 μL of SN-38 working standard to 95 μL of blank mice tumor homogenate to achieve 2000 ng/mL concentration and vortexed well and processed as described.
LC-MS/MS Method: Chromatographic separation was achieved on Inertsil C8-3 (50×4.6 mm, 5 μ) with a flow rate of 250 μL/min and an injection volume of 10 μL. The sample cooler was maintained at 10° C. The column oven temperature was set to 40° C. The mobile phase consisted of 0.1% formic acid in Milli Q water and acetonitrile in the ratio of 30:70 v/v, respectively. […] The overall chromatographic run time was 4.0 minutes.
Detection was performed by tandem mass spectrometry (TSQ Quantum, Discovery MAX, Thermo Electron Corporation) and peak areas were integrated using LCquan software version 2.9 QF1.
0 hr standard area was considered as 100% for calculation.

[2] = Comparison of solubility in water; format: physicochemical
Text: Comparison of Solubility of Compound I.4 in Water with SN-38

[3] = Camptosar Prescribing Information; cited from earlier work

% Remaining in tumor lysate ([1]; 0 h): 100.0% | % Remaining in tumor lysate ([1]; 1 h): 94.9% | % Remaining in tumor lysate ([1]; 2 h): 90.7% | % Remaining in tumor lysate ([1]; 4 h): 100.1% | % Remaining in tumor lysate ([1]; 6 h): 88.9% | % Remaining in tumor lysate ([1]; 8 h): 91.4% | Solubility in water [2]: Practically insoluble in water
SMILES: CCc1c2c(nc3ccc(O)cc13)-c1cc3c(c(=O)n1C2)COC(=O)[C@]3(O)CC [SN-38]
protein bound in plasma [3]: About 96%
